Key:
human p27Kip1 IRES = experiment: Dicistronic IRES mRNA reporter assay, p27Kip1 IRES; assay type: cell-based; conditions: LN229 cells
Protocol: (§1) Western blot and quantitative RT-PCR analyses were performed as previously described (19). For Western blotting, cells or tissues were lysed in RIPA (lysis) buffer containing protease inhibitor cocktail and phosSTOP phosphatase inhibitor cocktail (Roche) and extracts resolved by SDSPAGE. Proteins were transferred to PVDF membranes and incubated with the indicated antibodies. For IRES reporter assays, the indicated mRNA reporters were cotransfected into cells with pSVβ-galactosidase to normalize for transfection efficiency as described previously (16). Cells were harvested 18 h following transfection and Renilla, firefly and β-galactosidase activities determined using the Dual-Glo Luciferase and β-galactosidase assay systems (Promega).
(§2) (B) Schematic diagrams of the dicistronic constructs used in this study. […] Input and bound fractions were analyzed by immunoblotting using hnRNP A1 antibodies. […] Bound CCND1 or c-MYC RNAs were detected via RT-PCR. […]
(§3) Several dicistronic IRES mRNA reporter constructs were utilized, shown in FIG. 1B, in which the indicated IRES sequences were inserted within the intercistronic region. LN229 cells transiently transfected with these constructs were assayed for Renilla and firefly luciferase activities, which are readouts of cap-dependent and IRES-mediated translation initiation, respectively (16).

[1] = test system: IRES from encephalomyocarditis virus; experiment: Dicistronic IRES mRNA reporter assay, ECMV IRES; assay type: cell-based; conditions: LN229 cells
Protocol: as §1, §2, §3

[2] = test system: LN229, LN18, LN428 and SF763 GBM lines; experiment: Growth inhibition of GBM cell lines (XTT); assay type: cell-based
Protocol: Results are expressed as relative fold change in firefly (FF) luciferase activity and the mean and +S.D. are shown for three independent experiments. (B) Growth inhibition of GBM cell lines following 48 h culture in C11. Data represent mean±S.D. of three independent experiments. […] Control cell were treated with DMSO vehicle. Data are means±S.D., n=3. […] Percent apoptotic cells as determined via Annexin V staining are also shown below each graph. One of three experiments with similar results is shown.

[3] = test system: cyclin D1, c-MYC and actin mRNAs; experiment: Polysome analysis in LN229 cells; assay type: cell-based
Delta Max splicing = experiment: Max exon 5 alternative splicing analysis (RT-PCR); assay type: cell-based; conditions: U87 cells stably expressing EGFRvIII
Protocol: Max exon 5 alternative splicing analysis was performed as described (22). Alternative splicing was assayed using quantitative RT-PCR using primers designed to constitutive exons flanking alternative exons. Primers were: Max (85F) 5′-[…]-3′; MAX(85R) 5′-[…]-3′. Reverse primers were 32P end-labeled and PCR reactions were amplified for 22 cycles and subsequently resolved by denaturing PAGE and imaged.
(B) Schematic diagrams of the dicistronic constructs used in this study. Constructs used are pRF, pRCD1F, which contains the human cyclin D1 IRES, pRmycF, containing the human c-myc IRES, pRp27F, containing the human p27Kip1 IRES and pRECMVF, containing the IRES from encephalomyocarditis virus. (C) Relative Renilla and firefly luciferase activities obtained from LN229 GBM cells transfected with the indicated constructs in the absence or presence of the inhibitor C11. The mean and +SD are shown for three independent experiments. […] (D) RNA-pull down assays utilizing biotinylated cyclin D1 or c-MYC IRES RNAs. Cytoplasmic extracts of LN229 cells treated with C11 (50 nM) as indicated were incubated with biotinylated cyclin D1 or c-MYC IRES RNAs and precipitated with streptavidin-Sepharose beads. Input and bound fractions were analyzed by immunoblotting using hnRNP A1 antibodies. […] Bound CCND1 or c-MYC RNAs were detected via RT-PCR. […]

[4] = test system: cyclin D1 and c-MYC protein; experiment: Western blot of cyclin D1 and c-MYC protein levels in GBM cell lines; assay type: cell-based; conditions: LN229 and SF763 cells, 24 h
Protocol: as §1
(B) Schematic diagrams of the dicistronic constructs used in this study. Constructs used are pRF, pRCD1F, which contains the human cyclin D1 IRES, pRmycF, containing the human c-myc IRES, pRp27F, containing the human p27Kip1 IRES and pRECMVF, containing the IRES from encephalomyocarditis virus. (C) Relative Renilla and firefly luciferase activities obtained from LN229 GBM cells transfected with the indicated constructs in the absence or presence of the inhibitor C11. […] Input and bound fractions were analyzed by immunoblotting using hnRNP A1 antibodies. […] Bound CCND1 or c-MYC RNAs were detected via RT-PCR. […]

[5] = test system: subcutaneous LN229 tumors
Protocol: TUNEL staining of tumor sections was performed using the TACSXL DAB In Situ Apoptosis Detection kit (Trevigen) according to the manufacturer's instructions (19). […] Xenograft Studies-Xenografts of LN229 cells were performed in female C.B.-17-scid (Taconic) mice as previously described (14). Tumors were harvested at autopsy for Western blot analysis. Sections of paraffin-embedded tumors on slides were processed for immunohistochemistry as previously described (14,19). Statistical analysis was done with Student's t test and ANOVA models using Systat 13 (Systat Software, Chicago, Ill.). P values of less the 0.05 were considered significant.
Left panel, apoptotic cells were identified by TUNEL assays of sections prepared from harvested tumors at day 12 following initiation of treatment regimens. Data are expressed as the number of positive apoptotic bodies divided by high power field (hpf; 10-12 hpf/tumor). Values are means+S.D., *, P<0.05.

[6] = combination PP242 50 mg/kg/d + IRES-J007 20 mg/kg/d

SMILES | IRES-mediated initiation from p27Kip1 IRES (human p27Kip1 IRES) | IRES-mediated initiation from ECMV IRES [1] | CI (combination index) at ED50 ratio of 1:100 ([2]; C11 at 10 and 100 nM with PP242, 48 h, LN229, LN18, LN428 and SF763) | inhibition of cell growth ([2]; inhibitor alone, concentrations up to 10 μM, 48 h, several GBM lines) | actin mRNA distribution ([3]; 50 nM) | polysome distribution of cyclin D1 and c-MYC mRNA ([3]; 50 nM) | cyclin D1 or c-MYC steady-state mRNA levels ([3]; total monosomal/nonribosomal plus polysomal mRNA) | Delta Max splicing (Delta Max splicing) | cyclin D1 and c-MYC protein levels [4] | overall survival compared to either monotherapy [5, 6] | tumor growth delay [5, 6] | inhibition of tumor growth at end of dosing period ([5]; combination PP242 50 mg/kg/d + IRES-J007 20 mg/kg/d, ten consecutive days) | cyclin D1 and c-MYC protein levels in tumors ([5]; combination therapy) | TUNEL staining of tumor sections (apoptosis) ([5]; combination therapy, tumors harvested at day 12) | tumor growth vs double vehicle controls ([5]; monotherapy IRES-J007 20 mg/kg/d, ten consecutive days)
COc1ccc(CN2C(=O)C(Cl)=C(Cl)C2=O)c(OC)c1 [Compound C11, reference compound] | did not affect | did not affect | 0.5 | No significant inhibition of cell growth | unaffected | significant shift in both cyclin D1 and c-MYC mRNA to monosomal/nonribosomal fractions | did not appear to alter | did not alter | markedly reduced | – | – | – | – | – | –
COc1ccc(CN2C(=O)c3ccccc3C2=O)c(OC)c1 [IRES-J007, 2-((2,4-Dimethoxyphenyl)methyl)isoindoline-1,3-dione] | – | – | – | – | – | – | – | – | – | significantly extended | 20.5 days | 93% | Marked reductions | significant staining | did not differ significantly

Reference: US20210220331A1, “INHIBITORS OF IRES-MEDIATED PROTEIN SYNTHESIS” (The Regents of the University of California, priority 2016, published 2021)
